In patent publication US20230104671A1, “METHODS AND COMPOSITIONS FOR TREATING CARDIOMYOPATHY AND HEART FAILURE” (Ann and Robert H. Lurie Children's Hospital of Chicago, priority 2021, published 2023):

Test system: Egln1^Tie2Cre mice
Assay: C76 treatment of Egln1Tie2Cre mice: LV hypertrophy and cardiac fibrosis
Format: in vivo
Conditions: 3 week-old Egln1^Tie2Cre mice treated for 11 weeks
Experimental: Egln1^Tie2Cre mice, Egln1/Hif1a^Tie2Cre and Egln1/Hif2a^Tie2Cre double knockout mice were generated as described previously^16. Egln1^EndoCreERT2 mice were generated by crossing Egln1 floxed mice with EndoSCL-CreERT2 transgenic mice expressing the tamoxifen-inducible Cre recombinase under the control of the 5′ endothelial enhancer of the stem cell leukemia locus^23. At 8 weeks of age, Egln1^EndoCreERT2 and Egln1^f/f mice were treated with 2 mg tamoxifen intraperitoneally for 5 days to induced Egln1 deletion only in ECs. Mice were scarified at the age of ˜9 months. Both male and female mice were used in these studies. The use of animals was in compliance with the guidelines of the Animal Care and Use Committee of the Northwestern University and of the University of Arizona.
For Wheat Germ Agglutinin (WGA) staining, WGA conjugated with FITC or WGA conjugated with Alexa 647 were stained with cryosectioned slides at room temple for 10 mins.
For histological assessment, hearts were harvested and washed with PBS, followed by fixation in 4% formalin and dehydrated in 70% ethanol. After paraffin processing, the tissues were cut into semi-thin […] thick sections. Sections were stained with H & E staining or Masson's trichrome kit as a service of charge at Core Facility.
To assess the therapeutic potential of HIF-2α inhibition for cardiomyopathy, we treated 3 week-old Egln1^Tie2Cre mice with the HIF-2α translation inhibitor C76^31,35 for 11 weeks.

## COC(=O)c1sccc1N/N=C(\C#N)S(C)(=O)=O [C76, methyl 3-[(2E)-2-[cyano(methylsulfonyl)methylidene]hydrazinyl]thiophene-2-carboxylate]
FIGS. 10B and 10C
  cardiomyocyte surface area assessed by WGA staining: significantly attenuated
FIGS. 10D and 10E
  perivascular fibrosis by trichrome staining: significantly attenuated
Compared to vehicle treatment, cardiac dissection (FIG. 10A)
  LV/BW ratio (LV hypertrophy): decreased
